Reference: US9241947B2, “Boronic acid derivatives and therapeutic uses thereof” (priority 2013, dated 2016)
pIC50, pKi: −log10 of the molar value. Read-outs that look alike come from different tables or passages of the source.

Key:
[1] = system: KP1081 (NDM-1, TEM-1, SHV-11, CMY-6, CTX-M-15); assay: Carbapenem potentiation against clinical isolate; type: cell-based; conditions: Klebsiella pneumoniae; strain KP1081; read-out: Biapenem MIC Alone
Text: (§1) The results are present in Table 6.
The results are present in Table 7.

ECM6703 pUCP24-NDM-1 = type: cell-based, E. coli; conditions: Compound 1 at fixed 4 μg/ml or 8 μg/ml; NDM-1 producing strain
ECM6711 pUCP24-VIM-1 = type: cell-based, E. coli; conditions: Compound 1 at fixed 4 μg/ml or 8 μg/ml; VIM-1 producing strain
[2] = system: clinical isolates expressing class A, B and D carbapenemases; assay: Carbapenem potentiation against panel of clinical isolates; type: cell-based; conditions: Compound 1 at fixed 5 μg/ml; biapenem, doripenem, imipenem, meropenem; all the strains
Text: as §1

NDM-1 [3] = target: T1, NDM-1 (Klebsiella pneumoniae, UniProt C7C422); type: biochemical; conditions: read-out: Ki NDM-1, Imipenem
VIM-1 = target: T2, VIM-1 (Pseudomonas aeruginosa, UniProt A0A0F7KYQ8); type: biochemical; conditions: cleavage of nitrocefin (200 uM) by VIM-1 supernatant
T2 construct: made in house; host or cells: ECM6711 strain carrying pUCP24-VIM-1 plasmid (culture supernatant, not purified)

NDM-1 [4] = target: T1, NDM-1; type: biochemical
OXA-48 = OXA-48 (Klebsiella pneumoniae, UniProt Q6XEC0); assay: Inhibition of purified class D carbapenemase, biapenem substrate; type: biochemical; conditions: purified enzyme
SHV-12 = SHV-12 (Klebsiella pneumoniae, UniProt P0AD64, E235K/G234S/L31Q); assay: Inhibition of nitrocefin cleavage by purified enzyme; type: biochemical; conditions: nitrocefin substrate; read-out: Ki (SHV-12, NCF)
Description: Purified enzymes were mixed with various concentrations of inhibitors in reaction buffer and incubated for 10 min at room temperature. Nitrocefin was added and substrate cleavage profiles were recorded at 490 nm every 10 sec for 10 min.

[5] = cleavage of biapenem (100 uM) by NDM-1, read-out: Ki, Biapenem
[6] = cleavage of tebipenem (100 uM) by NDM-1, read-out: Ki, Tebipenem

T1 sequence (C7C422 29-270 limits assumed): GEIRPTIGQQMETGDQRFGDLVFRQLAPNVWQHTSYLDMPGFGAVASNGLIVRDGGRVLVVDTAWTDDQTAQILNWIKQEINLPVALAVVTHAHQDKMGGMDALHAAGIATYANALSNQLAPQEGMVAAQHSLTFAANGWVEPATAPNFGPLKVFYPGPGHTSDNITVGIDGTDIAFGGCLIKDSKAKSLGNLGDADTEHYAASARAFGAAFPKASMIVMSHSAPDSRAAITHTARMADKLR
Sequence of OXA-48 (Q6XEC0 23-265 limits assumed): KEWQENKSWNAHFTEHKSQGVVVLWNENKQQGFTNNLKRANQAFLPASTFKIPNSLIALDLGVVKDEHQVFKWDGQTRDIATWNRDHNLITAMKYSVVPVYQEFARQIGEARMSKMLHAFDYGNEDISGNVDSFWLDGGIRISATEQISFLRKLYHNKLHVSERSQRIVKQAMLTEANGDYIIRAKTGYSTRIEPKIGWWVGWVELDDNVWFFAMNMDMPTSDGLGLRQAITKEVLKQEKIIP
Sequence of SHV-12 (P0AD64 22-286 L31Q/G234S/E235K): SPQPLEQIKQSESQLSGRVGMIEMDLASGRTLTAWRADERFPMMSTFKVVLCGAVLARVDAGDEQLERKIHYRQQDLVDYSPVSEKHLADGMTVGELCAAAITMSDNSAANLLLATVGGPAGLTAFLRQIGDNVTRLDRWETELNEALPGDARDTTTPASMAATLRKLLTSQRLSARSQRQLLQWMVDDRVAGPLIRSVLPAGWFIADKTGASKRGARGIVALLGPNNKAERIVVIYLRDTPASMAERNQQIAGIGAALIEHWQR

Row | SMILES | MIC [1] [µg/mL] | imipenem MIC in the presence of Compound 1 (ECM6703 pUCP24-NDM-1) | imipenem MIC in the presence of Compound 1 (ECM6711 pUCP24-VIM-1) | carbapenem MIC in the presence of Compound 1 [2] | pKi (NDM-1 [3]) | pIC50 (VIM-1) | pKi (NDM-1 [4]; [5]) | pKi (NDM-1 [4]; [6]) | pKi (NDM-1 [4]; read-out: Ki, Imipenem) | pKi (OXA-48) | pKi (SHV-12)
1 | C[C@@H](O)[C@H]1C(=O)N2C(C(=O)[O-])=C(SC3Cn4cnc[n+]4C3)[C@H](C)[C@H]12 (stereo partly drawn) [Biapenem] | > 10 | – | – | – | – | – | – | – | – | – | –
2 | O=C(O)c1cccc2c1OB(O)[C@@H](Sc1nncs1)C2 [Compound 1, (R)-3-(1,3,4-thiadiazol-2-ylthio)-2-hydroxy-3,4-dihydro-2H-benzo[e][1,2]oxaborinine-8-carboxylic acid] | – | decreased to the level of the strain containing empty vector | decreased to the level of the strain containing empty vector | significantly reduced | 7.00 to 8.00 | > 6.00 | 7.00 to 8.00 | < 7.00 | 7.00 to 8.00 | – | –
3 | O=C(O)c1cccc2c1OB(O)[C@@H](Sc1nnc[nH]1)C2 [Compound 2, (R)-3-(4H-1,2,4-triazol-3-ylthio)-2-hydroxy-3,4-dihydro-2H-benzo[e][1,2]oxaborinine-8-carboxylic acid] | – | – | – | – | > 8.00 | > 6.00 | – | 7.00 to 8.00 | > 8.00 | 7.00 to 8.00 | > 7.00
4 | NC(=O)CS[C@H]1Cc2cccc(C(=O)O)c2OB1O [Compound 3, (R)-3-(2-amino-2-oxoethylthio)-2-hydroxy-3,4-dihydro-2H-benzo[e][1,2]oxaborinine-8-carboxylic acid] | – | – | – | – | < 7.00 | – | < 7.00 | < 7.00 | < 7.00 | > 8.00 | 6.00 to 7.00
5 | Nc1nnc(S[C@H]2Cc3cccc(C(=O)O)c3OB2O)s1 [Compound 4, (R)-3-(5-amino-1,3,4-thiadiazol-2-ylthio)-2-hydroxy-3,4-dihydro-2H-benzo[e][1,2]oxaborinine-8-carboxylic acid] | – | – | – | – | > 8.00 | > 6.00 | > 8.00 | > 8.00 | > 8.00 | > 8.00 | > 7.00
6 | Cn1nnnc1S[C@H]1Cc2cccc(C(=O)O)c2OB1O [Compound 5, (R)-2-hydroxy-3-(1-1H-tetrazol-5-ylthio)-3,4-dihydro-2H-benzo[e][1,2]oxaborinine-8-carboxylic acid] | – | – | – | – | 7.00 to 8.00 | ≤ 6.00 | – | – | 7.00 to 8.00 | – | –
7 | O=C(O)c1cccc2c1OB(O)[C@@H](Sc1ccccc1)C2 [Compound 6, (R)-2-hydroxy-3-(phenylthio)-3,4-dihydro-2H-benzo[e][1,2]oxaborinine-8-carboxylic acid] | – | – | – | – | > 8.00 | > 6.00 | – | – | > 8.00 | – | –
8 | CC(=O)Nc1nnc(S[C@H]2Cc3cccc(C(=O)O)c3OB2O)s1 [Compound 7, (R)-3-(5-acetamido-1,3,4-thiadiazol-2-ylthio)-2-hydroxy-3,4-dihydro-2H-benzo[e][1,2]oxaborinine-8-carboxylic acid] | – | – | – | – | 7.00 to 8.00 | > 6.00 | – | – | 7.00 to 8.00 | > 8.00 | > 7.00
9 | O=C(O)c1cccc2c1OB(O)[C@@H](Sc1cccnc1)C2 [Compound 8, (R)-2-hydroxy-3-(pyridin-3-ylthio)-3,4-dihydro-2H-benzo[e][1,2]oxaborinine-8-carboxylic acid] | – | – | – | – | < 7.00 | > 6.00 | – | – | < 7.00 | – | –
